This passage reports DNA fragmentation results from ChEMBL document CHEMBL1130556, “Synthesis and activity of brefeldin a analogs as inducers of cancer cell differentiation and apoptosis” (Bioorg Med Chem Lett, 1997).

Common to all, as to format: functional, cell-based
Details in all cases: Homo sapiens

The test system of test [1] is HCT-116. Nature of the test: Effect on apoptotic DNA fragmentation to differentitiate HCT 116 cells, at a concentration of 3.4 uM, 1.0 ug/ml was determined; - = Not potent.
Test [2] deals with HCT-116. Nature of the test: Effect on apoptotic DNA fragmentation to differentitiate HCT 116 cells, at a concentration of 1.6 uM, 0.5 ug/ml was determined; + = Potent.
In test [3] the test system is HCT-116. Nature of the test: Effect on apoptotic DNA fragmentation to differentitiate HCT 116 cells, at a concentration of 0.85 uM, 0.25 ug/ml was determined; - = Not potent.
Test [4] relates to HCT-116. The experiment in a line: Effect on apoptotic DNA fragmentation to differentitiate HCT 116 cells, at a concentration of 5.2 uM, 2.0 ug/ml was determined; - = Not potent.
In test [5] the test system is HCT-116. The experiment in a line: Effect on apoptotic DNA fragmentation to differentitiate HCT 116 cells, at a concentration of 0.11 uM, 0.03 ug/ml was determined; + = Potent.
Test [6] relates to HCT-116. Nature of the test: Effect on apoptotic DNA fragmentation to differentitiate HCT 116 cells, at a concentration of 3.6 uM, 1.0 ug/ml was determined; - = Non potent.
Test [7] relates to HCT-116. The experiment in a line: Effect on apoptotic DNA fragmentation to differentitiate HCT 116 cells, at a concentration of 0.27 uM, 0.1 ug/ml was determined; + = Potent.
Test [8] has as its system HCT-116. The experiment in a line: Effect on apoptotic DNA fragmentation to differentitiate HCT 116 cells, at a concentration of 6.4 uM, 2.0 ug/ml was determined; - = Not potent.
For test [9], the system named is HCT-116. The experiment in a line: Effect on apoptotic DNA fragmentation to differentitiate HCT 116 cells, at a concentration of 3.2 uM, 1.0 ug/ml was determined; - = Not potent.
For test [10], the system named is HCT-116. The experiment in a line: Effect on apoptotic DNA fragmentation to differentitiate HCT 116 cells, at a concentration of 0.16 uM, […] was determined; + = Potent.
In test [11] the test system is HCT-116. Nature of the test: Effect on apoptotic DNA fragmentation to differentitiate HCT 116 cells, at a concentration of 4.1 uM, 1.2 ug/ml was determined; + = Potent.
The subject of test [12] is HCT-116. Nature of the test: Effect on apoptotic DNA fragmentation to differentitiate HCT 116 cells, at a concentration of 3.5 uM, 1.0 ug/ml was determined; - = Not potent.

Turning to `C[C@@H](O)CCC/C=C\[C@@H]1C[C@H](O)C[C@H]1[C@H](O)/C=C/C(=O)O`, the DNA fragmentation entry in test [1] is “Not potent”.
Consider `CC(=O)O[C@@H]1/C=C/C(=O)O[C@@H](C)CCC/C=C\[C@@H]2C[C@H](O)C[C@H]21`, for which, in [2], the DNA fragmentation entry was “Potent”.
On to `CO[C@@H]1/C=C/C(=O)O[C@@H](C)CCC/C=C\[C@@H]2C[C@H](O)C[C@H]21`, for which the DNA fragmentation entry in test [3] is “Not potent”.
Consider `C[C@@H](O)CCC/C=C\[C@@H]1C[C@H](O)C[C@H]1[C@H](O)/C=C/C(=O)OCc1ccccc1`, for which the DNA fragmentation result in test [4] was “Not potent”.
Consider `C[C@H]1CCC/C=C\[C@@H]2C[C@H](O)C[C@H]2[C@H](O)/C=C/C(=O)O1`, for which the DNA fragmentation entry in test [5] is “Potent”.
With `C[C@H]1CCC/C=C\[C@@H]2CC(=O)C[C@H]2[C@H](O)/C=C/C(=O)O1`, the DNA fragmentation entry in [6] is “Non potent”.
For the compound `CC(=O)O[C@@H]1C[C@@H]2[C@H](/C=C\CCC[C@H](C)OC(=O)/C=C/[C@H]2OC(C)=O)C1`, in [7], the DNA fragmentation entry is “Potent”.
For the compound `COC(=O)/C=C/[C@@H](O)[C@@H]1C[C@@H](O)C[C@H]1/C=C\CCC[C@@H](C)O`, the DNA fragmentation result in test [8] is “Not potent”.
As for `CO[C@@H]1C[C@@H]2[C@H](/C=C\CCC[C@H](C)OC(=O)/C=C/[C@H]2OC)C1`, in test [9], the DNA fragmentation entry is “Not potent”.
Regarding `CC(=O)O[C@@H]1C[C@H]2[C@H](O)/C=C/C(=O)O[C@@H](C)CCC/C=C\[C@@H]2C1`, the DNA fragmentation entry in [10] is “Potent”.
Take `C[C@H]1CCC[C@@H]2O[C@@H]2[C@@H]2C[C@H](O)C[C@H]2[C@H](O)/C=C/C(=O)O1`: the DNA fragmentation entry in [11] is “Potent”.
`C[C@H]1CCCCC[C@@H]2C[C@H](O)C[C@H]2[C@H](O)CCC(=O)O1`: the DNA fragmentation entry in test [12] was “Not potent”.
Turning to `C[C@H]1CCC/C=C\[C@@H]2CC(=O)C[C@H]2C(=O)CCC(=O)O1`, the DNA fragmentation entry in [6] was “Non potent”.
